According to patent US8822528B2, “Monensin derivatives for the treatment and prevention of protozoal infections” (Merial Limited, priority 2010, dated 2014):

How the values were obtained:
[1] = tested on: Eimeria tenella; assay: In vitro efficacy against Eimeria tenella in infected MDBK cell culture (schizonts/merozoites counted microscopically); type: cell-based; design: Activity in inhibiting development of Eimeria tenella in vitro (schizonts and merozoites) / Presence of schizonts/merozoites (microscopic observation, picture): dose or concentration left out as unconfirmed; conditions: for Activity towards the parasite Eimeria tenella (summary): summary of in vitro testing of fifteen polyether ionophores; for Development of Eimeria tenella in vitro / Inhibition of the parasite Eimeria tenella: third series; for Development of Eimeria tenella in vitro: at very low concentrations (<0.39 μg/μL) (FIG. 31B); for Inhibition of development of Eimeria tenella in cell culture (formation of merozoites): five different concentrations in the presence of the parasite (FIG. 30); for Activity in inhibiting development of Eimeria tenella in vitro (schizonts and merozoites) / Presence of schizonts/merozoites (microscopic observation, picture): second series; for Activity in inhibiting development of Eimeria tenella in vitro (schizonts and merozoites): one concentration of 3.125 (FIG. 30A); for Inhibition of the parasite Eimeria tenella: at low concentrations (FIG. 31B); for Presence of schizonts/merozoites (microscopic observation, picture): 3.125, FIG. 30B/30C
Description: Once the IC50 concentration was determined, the test was performed on infected cells. The working concentration chosen was always lower than IC50.
After having cultured cells at 40° C. in each well of a 96-well plate, they were treated with a specific concentration (<IC50, allowing the inhibition of parasites in over 50% of cells) of polyether ionophore. Then, the sporozoites of Eimeria tenella were excysted and the cells infected with purified sporozoites. After incubation for 24 hrs at 40° C., the medium was changed. The efficiency of molecules was evaluated microscopically after 40 hrs and 48 hrs. The release of merozoites was noted (FIG. 30B). Thus, in explicit cases, the merozoites released were counted; in ambiguous cases, the quantitative PCR ([…]) will be used. For each test, a positive control of treatment (with monensin 1a) and a positive control of infection was made.

[2] = tested on: MDBK cells; assay: Cytotoxicity testing / IC50 determination on MDBK cells (Cell Titer, tetrazolium to formazan, 96-well); type: cell-based, Bovine; conditions: summary statement
Text: Cytotoxicity testing. For the prevention and the treatment, a compound is considered effective when it is non toxic or its toxicity is low for host cells but high for the target (parasite). For cytotoxicity testing and determination of the IC50, the in vitro model is one of the best methods, enabling this type of testing to be carried out directly on cells alone without fear of fatal consequences as in vivo. The IC50 is the maximum concentration at which at least 50% of cells survive following a treatment. All concentrations above it are excluded for the test; values below it, on the other hand, can be tested in order to determine the concentration that will totally or partially eliminate the parasite or inhibit its development. This test consists in testing several concentrations on cell culture in 96-well plate; the concentrations are tested in duplicate, and the cytotoxicity of the molecules is evaluated with special kits based on an oxidation-reduction reaction at the cell-machinery level (mitochondria).
As in the MTT kit (Promega), the reagent used is the tetrazolium salt MTT (3-[4,5-dimethylthiazol-2-yl]-2,5-diphenyltetrazolium bromide). The tetrazolium ring that it contains is reduced to formazan by the mitochondrial succinate dehydrogenase of active living cells. The color of the medium thus changes from yellow to purplish-blue. The intensity of this color is proportional to the number of living cells present at the time of testing but also to their metabolic activity. The percentage of living cells is determined from the ratio between the absorbance for the test well and the absorbance for the control well (cells alone).
Initially, the inhibitory concentration IC50 was determined. It corresponded to the concentration of polyether ionophore allowing the viability of 50% of cells. Bovine cells were cultured and incubated for 24 hrs at 40° C. in the wells of a 96-well plate. Then, a fixed concentration ([…]) of polyether ionophore was added to each well. The cells were incubated at 40° C. for 24 hrs. 20 μL, of “Cell Titer” was added to each well. The cells were again incubated for 30 min to 1 hour at 40° C. before the plate was read in a plate reader at a wavelength of 490 nm (maximum absorption of the formazan). This reading determined the optical density (OD) of each well and allowed access to the percentage of inhibition. I50=(ODtreated/ODcontrol)×100 […]=[1−(ODtreated/ODcontrol)]×100.
FIG. 26 represents a 96-well plate after adding “Cell Titer”. The intensity of colours depends on the toxicity of the polyether ionophore tested. Increasing color intensity corresponded to increasing number of living cells. […]

## CCC1(C2OC(C3OC4(COC(=O)CO4)C(C)CC3C)CC2C)CCC(C2(C)CCC3(CC(O)C(C)C(C(C)C(OC)C(C)C(=O)O)O3)O2)O1 (stereo not drawn) [Compound 12, Oxo-dioxane Monensin]
[1]
  Activity towards the parasite Eimeria tenella (summary): significant activity
  Development of Eimeria tenella in vitro: completely inhibited
[2]
  Cytotoxicity (summary in words): very low cytotoxicities

## CCC1(C2OC(C3OC(O)(CO)C(C)CC3C)CC2C)CCC(C2(C)CCC3(CC(O)C(C)C(C(C)C(OC)C(C)C(=O)NCc4ccccc4)O3)O2)O1 (stereo not drawn) [Compound 3a, 1-benzylamidomonensine]
[1]; first series
  Inhibition of development of Eimeria tenella in cell culture (formation of merozoites): did not appear to significantly inhibit

## CCC1(C2OC(C3OC(O)(CO)C(C)CC3C)CC2C)CCC(C2(C)CCC3(CC(O)C(C)C(C(C)C(OC)C(C)C(=O)NC(C(=O)OC)c4ccc(F)cc4)O3)O2)O1 (stereo not drawn) [Compound 4c, Methyl 2′-(monensinamido)-2′-(4′-fluorophenyl)acetate]
[1]
  Activity in inhibiting development of Eimeria tenella in vitro (schizonts and merozoites): no significant activity

## CCC1(C2OC(C3OC(CO)(OCC(=O)O)C(C)CC3C)CC2C)CCC(C2(C)CCC3(CC(O)C(C)C(C(C)C(OC)C(C)C(=O)O)O3)O2)O1 (stereo not drawn) [Compound 27, O-25-glycolic Acid Monensin]
[1]
  Activity towards the parasite Eimeria tenella (summary): significant activity
  Development of Eimeria tenella in vitro: completely inhibited
[2]
  Cytotoxicity (summary in words): very low cytotoxicities

## CCC1(C2OC(C3OC(O)(CO)C(C)CC3C)CC2C)CCC(C2(C)CCC3(CC(O)C(C)C(C(C)C(OC)C(C)C(=O)NCc4ccc(C(=O)OC)cc4)O3)O2)O1 (stereo not drawn) [Compound 3b, 1-(4-methylbenzoate)methylene Amidomonensine]
[1]; first series
  Inhibition of development of Eimeria tenella in cell culture (formation of merozoites): did not appear to significantly inhibit

## CCC1(C2OC(C(O)C(C)CC(C)C(=O)O)CC2C)CCC(C2(C)CCC3(CC(=O)C(C)C(C(C)C(OC)C(C)C(=O)O)O3)O2)O1 (stereo not drawn) [Compound 31, 7-oxo, 21-hydroxy, 25-acid Monensin]
[1]; third series (FIG. 31B)
  Concentration at which significantly effective against the parasite: greater than 1.56 g/μL
[1]
  Inhibition of the parasite Eimeria tenella: did not inhibit

## CCC1(C2OC(C3OC(CO)(OC)C(C)CC3C)CC2C)CCC(C2(C)CCC3(CC(O)C(C)C(C(C)C(OC)C(C)C(=O)O)O3)O2)O1 (stereo not drawn) [Compound 8a, 25-Methoxymonensin]
[1]
  Presence of schizonts/merozoites (microscopic observation, picture): absence of schizonts and merozoites
  Activity in inhibiting development of Eimeria tenella in vitro (schizonts and merozoites): very high efficacy
  Activity towards the parasite Eimeria tenella (summary): significant activity
[1]; listed as EV 02058
  Presence of schizonts/merozoites (microscopic observation, picture): merozoites not present
[2]
  Cytotoxicity (summary in words): very low cytotoxicities

## CCC12CCC(O1)C1(C)CCC3(CC(O)C(C)C(O3)C(C)C(OC)C(C)C(=O)OCC3(O)OC(C(C)CC3C)C3CC(C)C2O3)O1 (stereo not drawn) [Compound 7, Monensin Lactone]
[1]; first series, at high concentrations (FIG. 30)
  Concentration at which formation of merozoites was inhibited: greater than or equal to 12.5 g/μL

## CCC12CCC(O1)C1(C)CCC3(CC(OC)C(C)C(O3)C(C)C(OC)C(C)C(=O)OCC3(OC)OC(C(C)CC3C)C3CC(C)C2O3)O1 (stereo not drawn) [Compound 14a, 7,25-dimethoxylactone]
[1]
  Presence of schizonts/merozoites (microscopic observation, picture): merozoites present
  Activity in inhibiting development of Eimeria tenella in vitro (schizonts and merozoites): no significant activity

## CCC1(C2OC(C3OC(=O)C(C)CC3C)CC2C)CCC(C2(C)CCC3(CC(=O)C(C)C(C(C)C(OC)C(C)C(=O)O)O3)O2)O1 (stereo not drawn) [Compound 19, oxo-lactone Monensin]
[1]
  Activity in inhibiting development of Eimeria tenella in vitro (schizonts and merozoites): significant efficacy
  Activity towards the parasite Eimeria tenella (summary): satisfactory and encouraging results
[2]
  Cytotoxicity (summary in words): very low cytotoxicities

## CCC1(C2OC(C3OC4(COC(=O)CO4)C(C)CC3C)CC2C)CCC(C2(C)CCC3(CC(=O)C(C)C(C(C)C(OC)C(C)C(=O)O)O3)O2)O1 (stereo not drawn) [Compound 26, 7-oxo-monensin Oxodioxane]
[1]
  Inhibition of the parasite Eimeria tenella: did not inhibit

## CC[C@@]1([C@@H]2O[C@@H]([C@H]3O[C@@](O)(CO)[C@H](C)C[C@@H]3C)C[C@@H]2C)CC[C@H]([C@]2(C)CC[C@]3(C[C@H](O)[C@@H](C)[C@@H]([C@@H](C)[C@@H](OC)[C@H](C)C(=O)O)O3)O2)O1 [Compound 1a, Monensin]
[1]; first series
  Inhibition of development of Eimeria tenella in cell culture (formation of merozoites): inhibited the formation of merozoites at very low concentrations

## CCC1(C2OC(C3OC(O)(CO)C(C)CC3C)CC2C)CCC(C2(C)CCC3(CC(O)C(C)C(C(C)C(OC)C(C)C(=O)NCc4ccc(C(=O)O)cc4)O3)O2)O1 (stereo not drawn) [Compound 6a, 1-(benzoic acid)methylene Amidomonensine]
[1]; first series
  Inhibition of development of Eimeria tenella in cell culture (formation of merozoites): did not appear to significantly inhibit

## CCC1(C2OC(C3OC(O)(CO)C(C)CC3C)CC2C)CCC(C2(C)CCC3(CC(O)C(C)C(C(C)C(OC)C(C)C(=O)NCc4cccc(C(=O)OC)c4)O3)O2)O1 (stereo not drawn) [Compound 3c, 1-(3-methylbenzoate)methylene Amidomonensin]
[1]
  Activity in inhibiting development of Eimeria tenella in vitro (schizonts and merozoites): no significant activity

## CCC12CCC(O1)C1(C)CCC3(CC(=O)C(C)C(O3)C(C)C(OC)C(C)C(=O)OCC(=O)C(C)CC(C)C(=O)C3CC(C)C2O3)O1 (stereo not drawn) [Compound 18, Triacetone Lactone]
[1]
  Inhibition of the parasite Eimeria tenella: did not inhibit
